The values below come from patent US20200038513A1, “MODULATORS OF FAK PROTEOLYSIS AND ASSOCIATED METHODS OF USE” (ARVINAS OPERATIONS, INC., priority 2018, published 2020).

SMILES strings stand for the structures.

What all share (type): cell-based, human
Test [1] deals with p-Fak(Y397). Briefly: Fak activation, western blot in PC3 cells. The conditions noted are these: serum deprived PC3 cells, 24 h. As for the experimental part: (§1) If not indicated otherwise, cells were seeded and grown to 80% confluency and were treated with compound or control for 24 hours. Subsequently, the growth media was removed and the cells lysed by the addition of lysis buffer (25 mM Tris, pH 7.4; 1% NP-40, 0.25% deoxycholate, 1 mM sodium vanadate, 10 mM sodium fluoride, 10 mM sodium pyrophosphate, 20 mM β-glycerophosphate and 1× complete EDTA-free protease inhibitor cocktail (Roche)). After 20 minutes the mixture was spun down at 16,000×g for 10 minutes at 4° C. to pellet insoluble materials. Protein concentration of supernatants were determined via BCA assay (Thermo Fisher) before addition of NuPAGE sample buffer containing 5% β-Me and boiling at 95° C. for 10 minutes. Equal amounts of protein were subjected to SDS-PAGE and subsequent electrophoretic transfer onto nitrocellulose membrane. Rabbit antibodies were purchased from Cell Signaling: Fak (3285), p-Fak (3283), p-Paxillin (2541), p-Akt (S473)(4060), GAPDH (2118), Androgen Receptor (5153), p-Src(Y527)(2105), p-S6RP (2215). Mouse antibodies were purchased from Cell Signaling: tubulin (3873), S6RP (2317). Secondary antibody ∝-rabbit (31460) or ∝-mouse (31444) was coupled to horseradish peroxidase and purchased from Thermo Fisher. Immunoblots were developed using enhanced chemiluminescence and visualized using a Bio-Rad Chemi-Doc MP Imaging System and quantitated with Image Lab v.5.2.1 software (Bio-Rad Laboratories). Data analysis and statistics was performed using Prism 7.0 (GraphPad).
Fak levels are undetectable at concentrations of 100 nM through 1 μM of exemplary compound 102, and slightly rebound at concentrations of 5 μM (10%) and 10 μM (27%) due to an observed hook effect. […] Paxillin, a downstream target of the Fak-Src complex, has been associated with cell migration. […] Akt is a kinase that is tied to the Fak signaling cascade via PI3K, but can be activated through other pathways as well. […] A maximum p-Akt suppression of 93% is observed at 1 μM of exemplary compound 102. […]

For test [2], the system named is MDA-MB-231 cells. Briefly: Transwell invasion assay. The conditions noted are these: 100 nM, 24 hours. How it is done:
On the first day, 0.2× Basement Membrane Extract (BME) working solution was prepared by diluting 5×BME stock solution in 1× Travigen Inc. coating buffer. Briefly, 100 μL of 10× coating buffer was diluted in 900 μL of sterile water to make 1× coating buffer. Then 960 μL of 1× coating buffer was mixed with 40 μL of 5×BME to make working 0.2×BME solution. Corning Transwell permeable inserts (Costar Transwell chambers, Corning) were placed on a 24-well plate and 100 μL of 0.2×BME solution was added to each Transwell insert and incubated for 16 hours. Following day, MDA-MB-231 cells were trypsinized and cells were suspended in serum free medium. Approximately 100 μL from cell suspension (˜3×10^5 cells) was added to each Transwell insert followed by another 100 μL of exemplary compound or control containing serum free RPMI medium. The lower chamber was filled with 10% FBS containing RPMI medium and the whole setup was incubated at 37° C. 1-5% CO2 for 24 hours. After 24 hours, cell culture medium was removed from both lower and upper chambers and Transwell inserts were washed three times with PBS. […] Images were then analyzed by ImageJ software and number of cells on the bottom side of the membrane were counted and presented as a bar graph using Prism 7.0 (GraphPad). Differences among groups were analyzed by Welch's t-test and considered significant when P<0.05. […]

For test [3], the system named is S6RP. Kind of test: Western blot of S6RP total levels in MDA-MB-231 cells. The conditions noted are these: 10% FBS, varying concentrations. How it is done:
as §1, with “Secondary antibody ∝-rabbit (31460) or ∝-mouse (31444) was coupled to horseradish peroxidase and purchased from Thermo Fisher.” left out, “Data analysis and statistics was performed using Prism 7.0 (GraphPad).” left out
Background: Immunoblotting shows a protein as a band on a membrane.

In test [4] the test system is MDA-MB-231 cells. Briefly: Cell proliferation assay (MTS). The conditions noted are these: 96 hours. How it is done: (§2) Cells were seeded in 96-well plates and treated with exemplary compound or control as indicated. At desired time points culture medium was supplemented with […] MTS (Promega) and […] phenazine methosulfate (Sigma) and incubated at 37° C. Mitochondrial reduction of MTS to the formazan derivative was monitored by measuring the medium's absorbance at 490 nm using a Wallac Victor 2 plate reader (Perkin-Elmer Life Sciences). Data analysis and statistics was performed using Prism 7.0 (GraphPad).

Test [5] has as its system PC3 cells. Briefly: Cell proliferation assay (MTS). Particulars: 96 h. As for the experimental part:
as §2

In test [6] the test system is MDA-MB-231 cells. Kind of test: Wound healing assay. The conditions noted are these: 24 hours. How it is done:
MDA-MB-231 cells were maintained in complete growth medium (RPMI-1640) at 37° C. supplied with 5% CO2. Cells (1×10^6) were split in to a 12-well plate. After 24 hours an even wound was created across each well using a sterile 10 μL pipette tip and the cells were washed with warm phosphate-buffered solution (PBS) twice to remove any floating or dead cells. This time point was considered as 0 hours and cells were incubated in fresh medium containing exemplary compound or control as indicated, for 24 hours. Images of wounded area were captured at 0 hour and after 24 hours using a camera attached to a light microscope. Images were analyzed by ImageJ software and wounded area was quantified. The area of the remaining wound at 24 hours was subtracted from the area of the wound at 0 hour. Percent wound healing (migration) was calculated and data presented as a bar graph using Prism 7.0 (GraphPad). Differences between groups were analyzed by Welch's t-test and considered significant when p<0.05.
Since Fak is a key regulator of cell motility, exemplary compound 102 was evaluated for its effect on cell migration and invasion. […] Effects on cell migration were analyzed in a wound healing assay using the aggressive and invasive human TNBC cell line MDA-MB-231. […] Wound closure was quantified after 24 hours (FIGS. 13A and 13B).

With `CNC(=O)c1ccc(Nc2ncc(C(F)(F)F)c(NCc3nccnc3N(C)S(C)(=O)=O)n2)cc1` [Defactinib, defactinib, reference compound], the “lowest level of p-Fak activity (remaining)” value in test [1] (10 μM) is given as 26%. Further, in test [2], the “effect on cell invasion (in words)” value is “no significant effect”.
For `Cc1ncsc1-c1ccc(CNC(=O)[C@@H]2C[C@@H](O)CN2C(=O)[C@@H](NC(=O)CCOCCOc2ccc(Nc3ncc(C(F)(F)F)c(NCc4cccc(N(C)S(C)(=O)=O)c4)n3)cc2)C(C)(C)C)cc1` [Compound 102, (2S,4R)-1-((S)-3,3-dimethyl-2-(3-(2-(4-((4-((3-(N-methylmethylsulfonamido)benzyl)amino)-5-(trifluoromethyl)pyrimidin-2-yl)amino)phenoxy)ethoxy)propanamido)butanoyl)-4-hydroxy-N-(4-(4-methylthiazol-5-yl)benzyl)pyrrolidine-2-carboxamide], the “total S6RP levels (in words)” value in test [3] is given as “unchanged”. Also, the p-Fak levels result in test [1] (between 100 nM and 5 μM) is listed as “less than 5%”. For the same compound, the “Fak activation (p-Fak(Y397)) compared to DMSO (in words)” value in test [1] (increasing concentrations) was “significantly reduced”. The “reduction of cell invasion” value in test [2] was 65%. Moreover, the “cell viability or proliferation (in words)” value in test [4] and in test [5] was “do not affect cell viability or proliferation within four days” each time. In addition, the “reduction of wound healing” value in test [6] (50 nM) came to 53%. Besides, the “impairment of wound closure” value in test [6] (250 nM) was found to be 70%.
